Reference: patent US20100184809A1, “Heterocyclic FXR Binding Compounds” (PHENEX PHARMACEUTICALS AG, priority 2006, published 2010)
Values after ≈ are worked out from the molar mass of the structure shown.

Key:
[1] = molecular target: T1, human FXRalpha ligand binding domain (LBD) (Homo sapiens, UniProt Q96RI1); test: FRET activity assay (ligand mediated cofactor peptide interaction, LANCE); type: biochemical; settings: GST-FXR-LBD / biotinylated SRC-1 peptide (676-700)
T1 construct: made in house; host or cells: E. coli BL21(DE3), vector pDEST15
T1 sequence (Q96RI1 187-472 isoform Q96RI1-2): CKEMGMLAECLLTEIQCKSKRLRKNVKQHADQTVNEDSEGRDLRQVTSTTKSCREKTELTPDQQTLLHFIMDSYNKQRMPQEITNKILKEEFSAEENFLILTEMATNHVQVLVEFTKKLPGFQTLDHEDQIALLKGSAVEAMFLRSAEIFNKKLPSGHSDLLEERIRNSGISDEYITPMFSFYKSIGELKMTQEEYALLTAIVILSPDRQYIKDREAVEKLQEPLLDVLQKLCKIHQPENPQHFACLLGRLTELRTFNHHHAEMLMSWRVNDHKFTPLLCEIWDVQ
Procedure: Determination of a ligand mediated cofactor peptide interaction to quantify ligand binding to the nuclear receptor Farnesoid X Receptor (FXR) was performed as follows:
Preparation of human farnesoid X receptor (FXR) alpha ligand binding domain: The human FXRalpha ligand binding domain (LBD) was expressed in E. coli strain BL21(DE3) as an N-terminally glutathione-[…] (GST) tagged fusion protein. The DNA encoding the FXR ligand binding domain was cloned into vector pDEST15 (Invitrogen). Expression was under control of an IPTG inducible T7 promoter. The amino acid boundaries of the ligand binding domain were amino acids 187-472 of Database entry NM_005123 (RefSeq). Expression and purification of the FXR-LBD: An overnight preculture of a transformed E. coli strain was diluted 1:20 in LB-Ampicillin medium and grown at 30° C. to an optical density of OD600=0.4-0.6. Gene expression was then induced by addition of 0.5 mM IPTG. Cells were incubated an additional 6 h at 30° C., 180 rpm. Cells were collected by centrifugation (7000×g, 7 min, room temperature). Per liter of original cell culture, cells were resuspended in 10 ml lysis buffer (50 mM Glucose, 50 mM Tris pH 7.9, 1 mM EDTA and 4 mg/ml lysozyme) and left on ice for 30 min. Cells were then subjected to sonication and cell debris removed via centrifugation (22000×g, 30 min, 4° C.). Per 10 ml of supernatant 0.5 ml prewashed Glutathione 4B sepharose slurry (Qiagen) was added and the suspension kept slowly rotating for 1 h at 4° C. Glutathione 4B sepharose beads were pelleted by centrifugation (2000 g, 15 sec, 4° C.) and washed twice in wash buffer (25 mM Tris, 50 mM KCl, 4 mM MgCl2 and 1M NaCl). The pellet was resuspended in 3 ml elution buffer per liter of original culture (elution buffer: 20 mM Tris, 60 mM KCl, 5 mM MgCl2 and 80 mM glutathione added immediately prior to use as powder). The suspension was left rotating for 15 min at 4° C., the beads pelleted and eluted again with half the volume of elution buffer than the first time. The eluates were pooled and dialysed overnight in 20 mM Hepes buffer (pH 7.5) containing 60 mM KCl, 5 mM MgCl2 as well as 1 mM dithiothreitol and 10% (v/v) glycerol. The protein was analysed by SDS-Page.
The method measures the ability of putative ligands to modulate the interaction between the purified bacterial expressed FXR ligand binding domain (LBD) and a synthetic biotinylated peptide based on residues 676-700 of SRC-1 (LCD2, 676-700). The sequence of the peptide used was B-[…]-COOH where the N-terminus was biotinylated (B). The ligand binding domain (LBD) of FXR was expressed as fusion protein with GST in BL-21 cells using the vector pDEST15. Cells were lysed by sonication, and the fusion proteins purified over glutathione sepharose (Pharmacia) according to the manufacturers instructions. For screening of compounds for their influence on the FXR-peptide interaction, the Perkin Elmer LANCE technology was applied. This method relies on the binding dependent energy transfer from a donor to an acceptor fluorophor attached to the binding partner of interest. For ease of handling and reduction of background from compound fluorescence LANCE technology makes use of generic fluorophore labels and time resolved detection Assays were done in a final volume of 2 5 μl in a 384 well plate, in a Tris-based buffer (20 mM Tris-HCl pH 7,5; 60 mM KCl, 5 mM MgCl2; 35 ng/μl BSA), containing 20-60 ng/well recombinantly expressed FXR-LBD fused to GST, 200-600 nM N-terminally biotinylated peptide, representing SRC1 aminoacids 676-700, 200 ng/well Streptavidin-xIAPC conjugate(Prozyme) and 6-10 ng/well Eu W1024 antiGST (Perkin Elmer). DMSO content of the samples was kept at 1%. After generation of the assay mix and diluting the potentially FXR modulating ligands, the assay was equilibrated for one hour in the dark at room temperature in FIA-plates black 384 well (Greiner). […]

[2] = Aqueous solubility assay, Protocol B, shake-flask method; type: physicochemical; settings: aqueous buffer, 10 mM PBS buffer pH 7.4, 1% MeOH, room temperature, read-out: Aqueous solubility pH 7.4 (μM) (±standard deviation), shake-flask method
Procedure: Protocol B, shake-flask method:
Sample preparation: Sample and standard solution preparation is performed by mixing equal volumes of acetonitrile containing the internal standard (1 μM final concentration) with sample and calibration standard solutions (100 μl). After vigorously shaking (10 seconds) the samples are centrifuged (6000 g) for 5 minutes at 20° C. Aliquots of the particle-free supernatants are transferred to 200 μl sample vials and subsequently subjected to LC-MS/MS. Assay procedure: Test concentration was 100 μM in 10 mM PBS buffer pH 7.4 with a final MeOH concentration of 1%. The volume of the incubation solution was 500 μl. Depending on each compound's solubility in MeOH, the stock concentration and the incubation concentration was adapted. The test solutions in quadruplicates were shaken at 300 rpm over a 20 hours period at room temperature, followed by centrifugation at 20000 g for 30 minutes to separate the solid phase. 100 μl of particle free sample are added to 100 μl acetonitrile containing the internal standard. The aqueous solubility of the compounds was determined by measuring the concentration of the PBS buffer supernatant by HPLC-MS/MS.

[3] = Plasma protein binding assay (equilibrium dialysis); type: in vitro ADME; settings: 37° C., extrapolated fraction unbound
Procedure: Equilibrium dialysis is used to determine the extent of binding of a compound to plasma proteins. A semi-permeable membrane separates a protein-containing compartment from a protein-free compartment. The system is allowed to equilibrate at 37° C. The test compound present in each compartment is quantified by LC-MS/MS. The extent of binding is reported as a fraction unbound (fu) value which is calculated as fu=1−(PC−PF)/PC. PC=Test compound concentration in protein-containing compartment. PF=Test compound concentration in protein-free compartment. In addition to using whole plasma, the plasma protein binding assay can be performed using two other ratios of plasma (10% or 50% plasma in buffer v/v). The following equations are used to convert from a fraction unbound at 10% or 50% to a fraction unbound at 100%: […]

[4] = Rat hepatocyte stability assay; type: in vitro ADME; settings: hepatocytes, 37° C., 60 minute, read-out: Rat hepatocyte clearance
Procedure: Compound stability towards rat hepatocytes was determined as follows: The hepatocytes are incubated with the test compound at 37° C. Samples are removed at the appropriate time points into methanol to terminate the reaction. Following centrifugation, the supernatant is analysed by LC-MS/MS. The disappearance of test compound is monitored over a 60 minute time period. The In peak area ratio (compound peak area/internal standard peak area) is plotted against time and the gradient of the line determined. Finally, half life t1/2 and Intrinsic clearance CLint is computed by the following equations: elimination rate konstant (k)=−gradient; t1/2 (min)=0.693/k; V (μl/10^6 cells)=volume of incubation (μl)/number of cells (*10^6); CLint (μl/min/10^6cells protein)=V*0.693/t1/2.

[5] = Rat microsomal stability assay; type: in vitro ADME; settings: liver microsomes, 37° C., NADPH, 45 minute, read-out: Rat liver microsome clearance
Procedure: Compound stability towards rat liver microsomes was determined as follows: The microsomes are incubated with the test compound at 37° C. in the presence of the co-factor, NADPH, which initiates the reaction. The reaction is terminated by the addition of methanol. Following centrifugation, the supernatant is analysed on the LC-MS/MS. The disappearance of test compound is monitored over a 45 minute time period. The In peak area ratio (compound peak area/internal standard peak area) is plotted against time and the gradient of the line determined. Finally, Intrinsic clearance CLint is computed by the following equations: elimination rate konstant (k)=−gradient; t1/2 (min)=0.693/k; V (μl/mg)=volume of incubation (μl)/protein in incubation (mg); CLint (μl/min/mg protein)=V*0.693/t1/2.

Row | Structure (SMILES) | IC50 [1] [µM] | solubility at 20 h [2] [µM] | fraction unbound [3] | hepatocyte CLint [4] [µL/min/1e6 cells] | microsomal CLint [5] [µL/min/mg]
1 | CC(C)c1onc(-c2c(Cl)cccc2Cl)c1COc1cnc(N(C)Cc2cccc(C(=O)O)c2)c(Cl)c1 [Example 32, 3-(((3-Chloro-5-((3-(2,6-dichlorophenyl)-5-isopropylisoxazol-4-yl)methoxy)pyridin-2-yl)(methyl)amino)methyl)benzoic acid] | ≤ 1 | 129 (≈ 72.4 µg/mL) |  |  | 
2 | CC(C)c1onc(-c2c(Cl)cccc2Cl)c1COc1ccc(N(C)C(=O)c2ccc(-c3nnn[nH]3)cc2)c(C(F)(F)F)n1 [Example 25, N-(6-((3-(2,6-Dichlorophenyl)-5-isopropylisoxazol-4-yl)methoxy)-2-(trifluoromethyl)pyridin-3-yl)-N-methyl-4-(1H-tetrazol-5-yl)benzamide] | ≤ 1 |  | 0.0004 | 2.5 | 169
